# Data reported in patent EP4813992A1, “POLYARYL DERIVATIVE AND USE THEREOF” (Hangzhou HealZen Therapeutics Co., Ltd., priority 2023, dated 2025).
# Target: HPK1 kinase (Homo sapiens, UniProt Q92918)
# Test: Lantha screen assay, inhibitory effect on HPK1 kinase
# Assay type: biochemical
# Details: initial compound concentration 1 µM
# Description: The Lantha screen assay is used to evaluate the inhibitory effect of the compounds on HPK1 kinase. • a) Kinase buffer: 50 mM HEPES (pH 7.5), 10 mM MgCl2, 4 mM DTT, 0.01% Tween-20, 0.01% BSA. • b) Compound Preparation: The compound is diluted with DMSO, and the initial detection concentration of the compound is 1 µM and is diluted to the corresponding concentration. • c) Kinase response and termination: A kinase solution is prepared by adding kinase buffer, the kinase solution and the compound are added to the test plate to be incubated at room temperature for 10 minutes. Fluorescein-PKC and ATP are added to the kinase buffer to form a substrate solution, and 5 µl of the substrate solution is added to the test plate to start the reaction to be incubated at room temperature for 90 minutes; then, 10 µl of a mixture of antibody and EDTA is added to terminate the reaction to be incubated at room temperature for 60 minutes. • d) The date is read by Envision instrument to plot a curve with the Log concentration of the inhibitor as the X-axis and the inhibition rate as the Y-axis, and then the formula Y=Bottom + (Top-Bottom)/(1+(IC50/X)^HillSlope) is used to obtain IC50. Table 1 Inhibitory activity the compounds of the invention on HPK1 kinase
# Sequence of HPK1 kinase (Q92918 whole entry): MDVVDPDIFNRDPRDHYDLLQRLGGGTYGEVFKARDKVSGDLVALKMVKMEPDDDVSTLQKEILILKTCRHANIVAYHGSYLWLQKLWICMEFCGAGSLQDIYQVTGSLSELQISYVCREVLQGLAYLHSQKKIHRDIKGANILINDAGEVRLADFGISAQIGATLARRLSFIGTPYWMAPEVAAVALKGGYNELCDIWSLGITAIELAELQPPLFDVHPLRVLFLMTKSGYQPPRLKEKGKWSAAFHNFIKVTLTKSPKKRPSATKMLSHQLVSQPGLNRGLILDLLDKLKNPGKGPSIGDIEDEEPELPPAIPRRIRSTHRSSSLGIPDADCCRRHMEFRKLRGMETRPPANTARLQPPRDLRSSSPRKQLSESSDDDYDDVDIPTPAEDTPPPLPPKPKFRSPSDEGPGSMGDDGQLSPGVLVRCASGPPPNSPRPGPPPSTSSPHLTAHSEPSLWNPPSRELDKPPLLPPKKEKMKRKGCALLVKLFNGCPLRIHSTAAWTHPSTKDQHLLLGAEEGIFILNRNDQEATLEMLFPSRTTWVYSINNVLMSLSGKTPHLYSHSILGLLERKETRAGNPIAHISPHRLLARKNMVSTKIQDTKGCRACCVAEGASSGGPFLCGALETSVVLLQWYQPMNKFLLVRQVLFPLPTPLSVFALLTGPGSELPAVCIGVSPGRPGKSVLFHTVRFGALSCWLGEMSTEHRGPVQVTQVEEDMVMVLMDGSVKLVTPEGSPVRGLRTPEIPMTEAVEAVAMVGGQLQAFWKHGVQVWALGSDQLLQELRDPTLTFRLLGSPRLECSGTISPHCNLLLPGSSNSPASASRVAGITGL
row,SMILES,IC50
1,Cc1cc(N2CCC3(CCC(N4CC=C(c5c(C)cc(-c6cnc7[nH]cc(-c8ccc(C(=O)N(C)C)cc8)c7n6)cc5C)CC4)C3)C2)ccc1N1CCC(=O)NC1=O (centres unmarked) [compound 017],< 10 nM
2,CN(C)C(=O)c1ccc(-c2c[nH]c3ncc(-c4ccc(C5=CCN(CC6CN(c7ccc(C(=O)NC8CCC(=O)NC8=O)cc7)C6)CC5)c(C5CCCN5)c4)nc23)cc1 (centres unmarked) [compound 058],< 10 nM
3,Cc1cc(N2CC(CN3CC=C(c4c(C)cc(-c5cnc6[nH]cc(-c7cnn(C8CCN(C(C)CC(=O)N(C)C)CC8)c7)c6c5)cc4C)CC3)C2)ccc1N1CCC(=O)NC1=O (centres unmarked) [compound 136],< 10 nM
4,Cc1cc(-c2cnc3[nH]cc(-c4ccc(C(=O)N(C)C)cn4)c3n2)cc(C)c1C1=CCN(CC2CN(c3ccc(C(=O)NC4CCC(=O)NC4=O)cc3)C2)CC1 (centres unmarked) [compound 031],< 10 nM
5,Cc1cc(-c2cnc3[nH]cc(-c4ccc(C(=O)N(C)C)cc4)c3n2)cc(C)c1C1=CCN(CCCC(=O)c2ccc(C3CCC(=O)NC3=O)cc2)CC1 (centres unmarked) [compound 033],< 10 nM
6,Cc1cc(-c2cnc3[nH]cc(-c4ccc(C(=O)N(C)C)cc4)c3n2)cnc1C1=CCN(C2CCN(c3ccc(N4CCC(=O)NC4=O)c(F)c3)C2)CC1 (centres unmarked) [compound 055],< 10 nM
7,Cc1cc(-c2cnc3[nH]cc(-c4ccc(C(=O)N(C)C)c(F)c4)c3n2)cc(C)c1C1=CCN(CC2CN(c3ccc(C(=O)NC4CCC(=O)NC4=O)cc3)C2)CC1 (centres unmarked) [compound 029],< 10 nM
8,COc1cc(N2CC(CN3CC=C(c4c(C)cc(-c5cnc6scc(-c7ccc(C(=O)N(C)C)cc7)c6n5)cc4C)CC3)C2)ccc1C(=O)NC1CCC(=O)NC1=O (centres unmarked) [compound 083],< 10 nM
9,Cc1cc(-c2cnc3[nH]cc(-c4ccc(C(=O)N(C)C)cc4)c3n2)cc(C)c1C1=CCN(C(=O)C2CN(c3ccc(C4CCC(=O)NC4=O)cc3)C2)CC1 (centres unmarked) [compound 060],< 10 nM
10,Cc1cc(-c2cnc3[nH]cc(-c4ccc(C(=O)N(C)C)cc4)c3n2)cc(C)c1C1=CCN(CC2CN(c3ccc(C(=O)N[C@H]4CCC(=O)NC4=O)c(F)c3)C2)CC1 [compound 071],< 10 nM
11,Cc1cc(N2CC(N3CC=C(c4c(C)cc(-c5cnc6[nH]cc(-c7ccc(C(=O)N(C)C)cc7)c6n5)cc4C)CC3)C2)ccc1N1CCC(=O)NC1=O [compound 125],< 10 nM
12,Cc1cc(NCC2(CN3CC=C(c4c(C)cc(-c5cnc6[nH]cc(-c7ccc(C(=O)N(C)C)cc7)c6n5)cc4C)CC3)CCC2)ccc1N1CCC(=O)NC1=O [compound 041],< 10 nM
13,Cc1cc(-c2cnc3[nH]cc(-c4ccc(C(=O)N(C)C)cc4)c3n2)cc(C)c1C1=CCN(CC2CN(c3ccc(NC4CCC(=O)NC4=O)nc3)C2)CC1 (centres unmarked) [compound 087],< 10 nM
14,Cc1ccc(C(=O)N2CC(CN3CC=C(c4c(C)cc(-c5cnc6[nH]cc(-c7cnc8c(c7C)NCCO8)c6n5)cc4C)CC3)C2)cc1N1CCC(=O)NC1=O [compound 069],< 10 nM
15,Cc1ccc(C(=O)N2CC(CN3CC=C(c4ccc(-c5cnc6[nH]cc(-c7ccc(C(=O)N(C)C)cc7)c6n5)cc4CN(C)C)CC3)C2)cc1N1CCC(=O)NC1=O [compound 051],< 10 nM
16,Cc1cc(-c2cnc(N)c(OCc3ccc(C(=O)N(C)C)cc3)n2)cc(C)c1C1=CCN(CC2CN(c3ccc(C(=O)NC4CCC(=O)NC4=O)cc3)C2)CC1 (centres unmarked) [compound 094],< 10 nM
17,Cc1cc(N2CCC(CN3CC=C(c4c(C)cc(-c5cnc6[nH]cc(-c7ccc(C(=O)N(C)C)cc7)c6n5)cc4C)CC3)C2)ccc1N1CCC(=O)NC1=O (centres unmarked) [compound 123],< 10 nM
18,Cc1cc(-c2cnc3[nH]cc(-c4ccc(C(=O)N(C)C)cc4)c3n2)cc(C)c1C1=CCN(CC2CCN(C(=O)c3ccc(Cl)c(N4CCC(=O)NC4=O)c3)CC2)CC1 [compound 120],< 10 nM
19,Cc1cc(-c2cnc3[nH]cc(-c4ccc(C(=O)N(C)C)cc4)c3n2)cc(C)c1C1=CCN(C2CN(c3cc(F)c(C4CCC(=O)NC4=O)c(F)c3)C2)CC1 (centres unmarked) [compound 007],< 10 nM
20,Cc1cc(-c2cnc3[nH]cc(-c4ccc(C(=O)N(C)C)cc4)c3n2)cc(C)c1C1=CCN(CC2CN(C3=CC(=O)N(C4CCC(=O)NC4=O)C3=O)C2)CC1 (centres unmarked) [compound 088],< 10 nM
21,Cc1cc(N2CC(CN3CC=C(c4ccc(-c5cnc6[nH]cc(-c7ccc(C(=O)N(C)C)cc7)c6n5)cc4F)CC3)C2)ccc1N1CCC(=O)NC1=O [compound 133],< 10 nM
22,Cc1cc(-c2cnc3[nH]cc(-c4ccc(C(=O)N(C)C)cc4)c3n2)cc(C)c1C1=CCN(C2CC3(CCN(c4ccc(C5CCC(=O)NC5=O)c(F)c4)C3)C2)CC1 (centres unmarked) [compound 045],< 10 nM
23,Cc1cc(-c2cnc3[nH]cc(-c4ccc(C(=O)N(C)C)cc4)c3n2)cc(C)c1C1=CCN(C2CN(C(=O)c3ccc(NC4CCC(=O)NC4=O)cc3)C2)CC1 (centres unmarked) [compound 020],< 10 nM
24,Cc1cc(-c2cnc3[nH]cc(-c4ccc(C(=O)N(C)C)cc4)c3n2)cc(C)c1C1=CCN(CC#Cc2cccc3c2n(C)c(=O)n3C2CCC(=O)NC2=O)CC1 (centres unmarked) [compound 046],< 10 nM
25,CCN1CCC(n2cc(-c3c[nH]c4ncc(-c5cc(C)c(C6=CCN(CC7CN(c8ccc(C9CCC(=O)NC9=O)cc8)C7)CC6)c(C)c5)nc34)cn2)CC1 (centres unmarked) [compound 056],< 10 nM

# The remaining lines, values ahead:
row,IC50,SMILES
1,< 10 nM,CCOc1cc(-c2cnc3[nH]cc(-c4ccc(C(=O)N(C)C)cc4)c3c2)ccc1C1=CCN(CC2CN(c3ccc(N4CCC(=O)NC4=O)c(C)c3)C2)CC1 [compound 137]
2,< 10 nM,Cc1cc(N2CC(CN3CC=C(c4c(C)cc(-c5cnc6[nH]cc(-c7cnn(C8CCNCC8)c7)c6c5)cc4C)CC3)C2)ccc1N1CCC(=O)NC1=O [compound 134]
3,< 10 nM,Cc1cc(-c2cnc3[nH]cc(-c4ccc(C(=O)N(C)C)cc4)c3n2)cc(C)c1C1=CCN(C2CN(Cc3ccc(F)c(N4CCC(=O)NC4=O)c3)C2)CC1 [compound 038]
4,< 10 nM,Cc1cc(-c2cnc3[nH]cc(-c4ccc(C(=O)N(C)C)cc4)c3n2)cc(C)c1C1=CCN(CC2CN(c3ccc(C(=O)NC4CCC(=O)NC4=O)c(F)c3)C2)CC1 (centres unmarked) [compound 100]
5,< 10 nM,Cc1cc(-c2cnc3[nH]nc(-c4ccc(C(=O)N(C)C)cc4)c3c2)cc(C)c1C1=CCN(CC2CCN(C(=O)c3ccc(F)c(N4CCC(=O)NC4=O)c3)C2)CC1 (centres unmarked) [compound 078]
6,< 10 nM,Cc1cc(-c2cnc3[nH]cc(-c4ccc(C(=O)N(C)C)cc4)c3c2)cc(C)c1C1=CCN(CC2CN(c3ccc(C(=O)NC4CCC(=O)NC4=O)cc3)C2)CC1 (centres unmarked) [compound 063]
7,< 10 nM,COc1ccc(N2CCC(C)(CN3CC=C(c4c(C)cc(-c5cnc6[nH]cc(-c7ccc(C(=O)N(C)C)cc7)c6n5)cc4C)CC3)C2)cc1N1CCC(=O)NC1=O (centres unmarked) [compound 035]
8,< 10 nM,Cc1cc(-c2cnc3[nH]cc(-c4ccc(C(=O)N(C)C)cc4)c3n2)cc(C)c1C1=CCN(CC2CN(c3cccc4c(C5CCC(=O)NC5=O)coc34)C2)CC1 (centres unmarked) [compound 147]
9,< 10 nM,Cc1cc(C2CC(CN3CC=C(c4c(C)cc(-c5cnc6[nH]cc(-c7ccc(C(=O)N(C)C)cc7)c6n5)cc4C)CC3)C2)ccc1N1CCC(=O)NC1=O (centres unmarked) [compound 039]
10,< 10 nM,Cc1cc(-c2cnc(N)c(Oc3cnn(C4CCN(C)CC4)c3)n2)cc(C)c1C1=CCN(CC2CN(c3ccc(C4CCC(=O)NC4=O)cc3)C2)CC1 (centres unmarked) [compound 096]
11,< 10 nM,Cc1cc(N2CC(CN3CC=C(c4c(C)cc(-c5cnc6[nH]cc(-c7cnn(C8CCN(C9CC9)CC8)c7)c6c5)cc4C)CC3)C2)ccc1N1CCC(=O)NC1=O [compound 118]
12,< 10 nM,COc1cc(C(=O)CCN2CC=C(c3c(C)cc(-c4cnc5[nH]cc(-c6ccc(C(=O)N(C)C)cc6)c5n4)cc3C)CC2)ccc1C1CCC(=O)NC1=O (centres unmarked) [compound 009]
13,< 10 nM,Cc1cc(N2CC(CN3CC=C(c4c(C)cc(-c5cnc6[nH]cc(-c7ccc(N8CCOCC8)nc7)c6c5)cc4C)CC3)C2)ccc1N1CCC(=O)NC1=O [compound 103]
14,< 10 nM,Cc1cc(-c2cnc(N)c(Oc3cnn(C4CCN(C)CC4)c3)n2)cc(C)c1C1=CCN(CC2CN(c3ccc(C(=O)NC4CCC(=O)NC4=O)cc3)C2)CC1 (centres unmarked) [compound 095]
15,< 10 nM,Cc1cc(-c2cnc(N)c(Oc3ccc(C(=O)N(C)C)cc3)n2)cc(C)c1C1=CCN(CC2CN(c3ccc(C(=O)NC4CCC(=O)NC4=O)cc3)C2)CC1 (centres unmarked) [compound 093]
16,< 10 nM,Cc1ccc(C(=O)N2CC(N3CC=C(c4c(C)cc(-c5cnc6[nH]cc(-c7ccc8c(c7)CCN(C)C8=O)c6n5)cc4C)CC3)C2)cc1N1CCC(=O)NC1=O [compound 072]
17,< 10 nM,Cc1cc(N2CC(CN3CC=C(c4c(C)cc(-c5cnc(N)c(Oc6ccc(C(=O)N(C)C)cc6)n5)cc4C)CC3)C2)ccc1N1CCC(=O)NC1=O [compound 091]
18,< 10 nM,Cc1cc(N2CC(CN3CC=C(c4c(C)cc(-c5cnc6[nH]cc(-c7cnn(C8CCOCC8)c7)c6c5)cc4C)CC3)C2)ccc1N1CCC(=O)NC1=O [compound 114]
19,< 10 nM,Cc1cc(-c2cnc3[nH]cc(-c4ccc(C(=O)N(C)C)cc4)c3n2)cc(C)c1C1=CCN(CC2CCN(c3ccc(C(=O)NC4CCC(=O)NC4=O)cc3)C2)CC1 (centres unmarked) [compound 074]
20,< 10 nM,Cc1cc(-c2cnc3[nH]cc(-c4ccc(C(=O)N(C)C)cc4)c3n2)cc(C)c1C1=CCN(CC2CN(c3ncc(C(=O)NC4CCC(=O)NC4=O)o3)C2)CC1 (centres unmarked) [compound 068]
21,< 10 nM,Cc1cc(N2CC(CN3CC=C(c4c(C)cc(-c5cnc6[nH]cc(-c7ccc(-c8ncco8)cc7)c6c5)cc4C)CC3)C2)ccc1N1CCC(=O)NC1=O [compound 138]
22,< 10 nM,Cc1cc(-c2cnc3[nH]cc(-c4ccc(C(=O)N(C)C)cc4)c3n2)cc(C)c1C1=CCN(CC#Cc2ccc(C(=O)NC3CCC(=O)NC3=O)cc2)CC1 (centres unmarked) [compound 026]
